# Reference: US11279735B2, “Cyclic peptide antibiotics” (priority 2017, dated 2022)
# *1 amine or outer side, *2 acyl side, *3 side chain or, on linkers, in order; H or OH if unused. Where a SMILES comes first, the peptide text is derived from it. [ ]: non-standard residue; d: D form. The star is where a group is joined. X2 = CCCCCC[C@@H](OC[C@@H](C)N[*:1])[C@@H](C)C(=O)[*:2]; X23 = CCCCCCCCCC[C@@H](OCCN[*:1])[C@@H](C)C(=O)[*:2]; aIle = CC[C@@H](C)[C@H](N)C(=O)O; aThr = C[C@H](O)[C@H](N)C(=O)O; NMeL = CN[C@@H](CC(C)C)C(=O)O; Chg = N[C@H](C(=O)O)C1CCCCC1; Dap = NC[C@H](N)C(=O)O; X11 = OC[C@H](O)C*
# Tested on: Escherichia coli (E. coli) strain CFT073 ATCC 700928
# Format: cell-based
# Details: ATCC 700928, 22 h
# Summary of the method: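 MICs were read after 22 h at 35 °C, with bacteria added to a final OD600 of 0.0005. Compounds were serially diluted 2-fold over ten concentrations from a top of 64, 4, 0.5 or 0.13 μg/mL (protocols 1–4). Medium was cation-adjusted Mueller Hinton II broth plus 0.002% Tween-80, following CLSI M07-A8.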
row,Compound,MIC [µM]
1,"CCCCCCCCCC[C@H]1OCCNC(=O)[C@H]([C@H](C)O)NC(=O)[C@H](CN)NC(=O)[C@H]([C@H](C)CC)NC(=O)[C@H](CC(C)C)N(C)C(=O)[C@@H]1C [Example 47, (6S,9S,12S,15S,18R,19R)-9-(aminomethyl)-19-decyl-6-[(1S)-1-hydroxyethyl]-15-isobutyl-16,18-dimethyl-12-[(1R)-1-methylpropyl]-1-oxa-4,7,10,13,16-pentazacyclononadecane-5,8,11,14,17-pentone] (cyclo([Dap][aThr][X23][NMeL][aIle]))",3.1
2,"CCCCCCCCCC[C@H]1OC(=O)CNC(=O)[C@H](COCCO)NC(=O)[C@H](CO)NC(=O)[C@H]([C@@H](C)CC)NC(=O)[C@H](CC(C)C)N(C)C(=O)[C@@H]1C [Example 48, (6S,9S,12S,15S,18R,19R)-19-decyl-6-(2-hydroxyethoxymethyl)-9-(hydroxymethyl)-15-isobutyl-16,18-dimethyl-12-[(1S)-1-methylpropyl]-1-oxa-4,7,10,13,16-pentazacyclononadecane-2,5,8,11,14,17-hexone]",50
3,"CC[C@@H](C)[C@@H]1NC(=O)[C@H](CC(C)C)N(C)C(=O)[C@H](C)[C@@H](CCCCC(C)(C)C)OC(=O)CNC(=O)[C@H]([C@H](C)O)NC(=O)[C@H](CN)NC1=O [Example 49, (6S,9S,12S,15S,18R,19R)-9-(aminomethyl)-19-(5,5-dimethylhexyl)-6-[(1S)-1-hydroxyethyl]-15-isobutyl-16,18-dimethyl-12-[(1R)-1-methylpropyl]-1-oxa-4,7,10,13,16-pentazacyclononadecane-2,5,8,11,14,17-hexone]",3.1
4,"CCCCCCCCCC[C@H]1OC(=O)CNC(=O)[C@H]([C@H](C)O)NC(=O)[C@H](CN)NC(=O)[C@H](CCCCOC)NC(=O)[C@H](CC(C)C)N(C)C(=O)[C@@H]1C [Example 50, (6S,9S,12S,15S,18R,19R)-9-(aminomethyl)-19-decyl-6-[(1S)-1-hydroxyethyl]-15-isobutyl-12-(4-methoxybutyl)-16,18-dimethyl-1-oxa-4,7,10,13,16-pentazacyclononadecane-2,5,8,11,14,17-hexone]",25
5,"CCCCCC[C@H]1OC(=O)CNC(=O)[C@H](COCCCN)NC(=O)[C@H](CN)NC(=O)[C@H](C2CCCCC2)NC(=O)[C@H](CC(C)C)N(C)C(=O)[C@@H]1C [Example 51, (6S,9S,12S,15S,18R,19R)-9-(Aminomethyl)-6-((3-aminopropoxy)methyl)-12-cyclohexyl-19-hexyl-15-isobutyl-16,18-dimethyl-1-oxa-4,7,10,13,16-pentaazacyclononadecane-2,5,8,11,14,17-hexaone]",8.7
6,"CCCCCC[C@H]1OC(=O)CNC(=O)[C@H]([C@H](C)O)NC(=O)[C@H](CN)NC(=O)[C@H](C2CCCCC2)NC(=O)[C@H](CC(C)C)N(C)C(=O)[C@@H]1Cc1ccc(-c2ccccc2)cc1 [Example 54, (6S,9S,12S,15S,18R,19R)-18-([1,1′-Biphenyl]-4-ylmethyl)-9-(aminomethyl)-12-cyclohexyl-19-hexyl-6-((S)-1-hydroxyethyl)-15-isobutyl-16-methyl-1-oxa-4,7,10,13,16-pentaazacyclononadecane-2,5,8,11,14,17-hexaone]",8.7
7,"CCCCCC[C@H]1OC(=O)CNC(=O)[C@H]([C@H](C)O)NC(=O)[C@H](CN)NC(=O)[C@H](C2CC3(CCC3)C2)NC(=O)[C@H](CC(C)C)N(C)C(=O)[C@@H]1C [Example 55, (6S,9S,12S,15S,18R,19R)-9-(aminomethyl)-19-hexyl-6-((S)-1-hydroxyethyl)-15-isobutyl-16,18-dimethyl-12-(spiro[3.3]heptan-2-yl)-1-oxa-4,7,10,13,16-pentaazacyclononadecane-2,5,8,11,14,17-hexaone]",18
8,"CCCCCCCCCC[C@H]1OC(=O)CNC(=O)[C@H](Cc2c[nH]nn2)NC(=O)[C@H](CN)NC(=O)[C@H](C2CCCCC2)NC(=O)[C@H](CC(C)C)N(C)C(=O)[C@@H]1C [Example 56, (6S,9S,12S,15S,18R,19R)-6-((1H-1,2,3-triazol-4-yl)methyl)-9-(aminomethyl)-12-cyclohexyl-19-decyl-15-isobutyl-16,18-dimethyl-1-oxa-4,7,10,13,16-pentaazacyclononadecane-2,5,8,11,14,17-hexaone]",4.4
9,"CCCCCC[C@H]1OC[C@@H](C)NC(=O)[C@H]([C@H](C)O)NC(=O)[C@H](CN)NC(=O)[C@H](C2CCCCC2)NC(=O)[C@H](CC(C)C)N(C)C(=O)[C@@H]1C [Example 57, (3R,6S,9S,12S,15S,18R,19R)-9-(Aminomethyl)-12-cyclohexyl-19-hexyl-6-((S)-1-hydroxyethyl)-15-isobutyl-3,16,18-trimethyl-1-oxa-4,7,10,13,16-pentaazacyclononadecane-5,8,11,14,17-pentaone] (cyclo([Chg][Dap][aThr][X2][NMeL]))",2.9
10,"CCCCCC[C@H]1OC(=O)CNC(=O)[C@H](CO[C@H]2C[C@H](N)C2)NC(=O)[C@H](CN)NC(=O)[C@H](C2CCCCC2)NC(=O)[C@H](CC(C)C)N(C)C(=O)[C@@H]1C [Example 58, (6S,9S,12S,15S,18R,19R)-6-(((1r,3S)-3-Aminocyclobutoxy)methyl)-9-(aminomethyl)-12-cyclohexyl-19-hexyl-15-isobutyl-16,18-dimethyl-1-oxa-4,7,10,13,16-pentaazacyclononadecane-2,5,8,11,14,17-hexaone]",6.3
11,"CCCCCC[C@H]1OC(=O)CNC(=O)[C@H]([C@H](C)O)NC(=O)[C@H](CN)NC(=O)[C@H](C2CCCCCC2)NC(=O)[C@H](CC(C)C)N(C)C(=O)[C@@H]1C [Example 59, (6S,9S,12S,15S,18R,19R)-9-(Aminomethyl)-12-cycloheptyl-19-hexyl-6-((S)-1-hydroxyethyl)-15-isobutyl-16,18-dimethyl-1-oxa-4,7,10,13,16-pentaazacyclononadecane-2,5,8,11,14,17-hexaone]",1.1
12,"CC(C)C[C@H]1C(=O)N[C@@H](C2CCCCC2)C(=O)N[C@@H](CN)C(=O)N[C@@H]([C@H](C)O)C(=O)NCC(=O)O[C@H](CCC2CC3CCC2C3)[C@@H](C)C(=O)N1C (stereo partly drawn) [Example 60, (6S,9S,12S,15S,18R,19R)-9-(Aminomethyl)-19-(2-(bicyclo[2.2.1]heptan-2-yl)ethyl)-12-cyclohexyl-6-((S)-1-hydroxyethyl)-15-isobutyl-16,18-dimethyl-1-oxa-4,7,10,13,16-pentaazacyclononadecane-2,5,8,11,14,17-hexaone]",0.73
13,"CCCCCCC1OC(=O)CNC(=O)[C@H]([C@H](C)O)NC(=O)[C@H](CN)NC(=O)[C@H]([C@H](C)CC)NC(=O)[C@H](CC(C)C)N(C)C(=O)C1(F)F (stereo partly drawn) [Example 61, (6S,9S,12S,15S)-9-(Aminomethyl)-12-((R)-sec-butyl)-18,18-difluoro-19-hexyl-6-((S)-1-hydroxyethyl)-15-isobutyl-16-methyl-1-oxa-4,7,10,13,16-pentaazacyclononadecane-2,5,8,11,14,17-hexaone]",6.3

# Further lines, results first:
row,MIC [µM],Compound
1,1.6,"CC(C)C[C@H]1C(=O)N[C@@H](C2CCCCC2)C(=O)N[C@@H](CN)C(=O)N[C@@H]([C@H](C)O)C(=O)NCC(=O)O[C@H](CC2CC3CCC2C3)[C@@H](C)C(=O)N1C (stereo partly drawn) [Example 62, (6S,9S,12S,15S,18R,19R)-9-(Aminomethyl)-19-(((exo)-bicyclo[2.2.1]heptan-2-yl)methyl)-12-cyclohexyl-6-((S)-1-hydroxyethyl)-15-isobutyl-16,18-dimethyl-1-oxa-4,7,10,13,16-pentaazacyclononadecane-2,5,8,11,14,17-hexaone]"
2,4.4,"CC(C)C[C@H]1C(=O)N[C@@H](C2CCCCC2)C(=O)N[C@@H](CN)C(=O)N[C@@H]([C@H](C)O)C(=O)NCC(=O)O[C@H](CCC(C)(C)C)[C@@H](C)C(=O)N1C [Example 63, (6S,9S,12S,15S,18R,19R)-9-(aminomethyl)-12-cyclohexyl-19-(3,3-dimethylbutyl)-6-((S)-1-hydroxyethyl)-15-isobutyl-16,18-dimethyl-1-oxa-4,7,10,13,16-pentaazacyclononadecane-2,5,8,11,14,17-hexaone]"
3,2.2,"COC(C)(C)CCCCCC[C@H]1OC(=O)CNC(=O)[C@H]([C@H](C)O)NC(=O)[C@H](CN)NC(=O)[C@H](C2CCCCC2)NC(=O)[C@H](CC(C)C)N(C)C(=O)[C@@H]1C [Example 64, (6S,9S,12S,15S,18R,19R)-9-(Aminomethyl)-12-cyclohexyl-6-((S)-1-hydroxyethyl)-15-isobutyl-19-(7-methoxy-7-methyloctyl)-16,18-dimethyl-1-oxa-4,7,10,13,16-pentaazacyclononadecane-2,5,8,11,14,17-hexaone]"
4,0.78,"CC(C)CCCCCC[C@H]1OC(=O)CNC(=O)[C@H]([C@H](C)O)NC(=O)[C@H](CN)NC(=O)[C@H](C2CCCCC2)NC(=O)[C@H](CC(C)C)N(C)C(=O)[C@@H]1C [Example 65, (6S,9S,12S,15S,18R,19R)-9-(Aminomethyl)-12-cyclohexyl-6-((S)-1-hydroxyethyl)-15-isobutyl-16,18-dimethyl-19-(7-methyloctyl)-1-oxa-4,7,10,13,16-pentaazacyclononadecane-2,5,8,11,14,17-hexaone]"
5,1.3,"CCCC[C@H]1OC(=O)CNC(=O)[C@H]([C@H](C)O)NC(=O)[C@H](CN)NC(=O)[C@H](C2CCCCC2)NC(=O)[C@H](CC(C)C)N(C)C(=O)[C@@H]1CCCC [Example 66, (6S,9S,12S,15S,18R,19R)-9-(Aminomethyl)-18,19-dibutyl-12-cyclohexyl-6-((S)-1-hydroxyethyl)-15-isobutyl-16-methyl-1-oxa-4,7,10,13,16-pentaazacyclononadecane-2,5,8,11,14,17-hexaone]"
6,8.8,"CCCCCC[C@H]1OC[C@@H](C)NC(=O)[C@H](COC[C@@H](O)CO)NC(=O)[C@H](CN)NC(=O)[C@H](C2CCCCC2)NC(=O)[C@H](CC(C)C)N(C)C(=O)[C@@H]1C [Example 67, (3R,6S,9S,12S,15S,18R,19R)-9-(Aminomethyl)-12-cyclohexyl-6-(((S)-2,3-dihydroxypropoxy)methyl)-19-hexyl-15-isobutyl-3,16,18-trimethyl-1-oxa-4,7,10,13,16-pentaazacyclononadecane-5,8,11,14,17-pentaone] (cyclo([Chg][Dap]S(X11)[X2][NMeL]))"
